Where two headings read alike, the source gives them in different places.
Key:
[1] = test system: HBV-infected NTCP-HepG2 cells, secreted HBsAg; test: microbe, parasite or virus in culture; type: cell-based, hepatitis B virus (genotype D, AD38-derived); details: Hepatitis B virus, 120 h, secreted HBsAg in supernatant after 5 days; geometric mean of minimum four determinations; read-out: NTCP HBsAg EC50
Summary of the method: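 NTCP-HepG2 cells were infected with genotype D HBV at 4000 genome equivalents/cell, then seeded 4 days post-infection with serially diluted compounds (1% DMSO) for 5 days. Supernatant HBsAg was measured by chemiluminescent MSD immunoassay. EC50 from four-parameter fit, geometric mean of ≥4 determinations.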

MT-4 cytotoxicity assay = type: cell-based, human; details: human
[2] = five days, Cell Titer Glo luminescence, read-out: MT-4 CC50

Structure (SMILES) | EC50 [1] | CC50 at 5 days (MT-4 cytotoxicity assay; [2]) | CC50 at 5 days (MT-4 cytotoxicity assay; MT-4 CC50)
COCCCOc1cc2c(cc1OC(F)F)-c1cc(=O)c(C(=O)O)cn1N1C2CCC1(C)C (stereo not shown) [Example 18, 11-(difluoromethoxy)-12-(3-methoxypropoxy)-3,3-dimethyl-8-oxo-2,3,8,13b-tetrahydro-1H-pyrido[2,1-a]pyrrolo[1,2-c]phthalazine-7-carboxylic acid] | 4 nM | > 10000 nM | 
COCCCOc1cc2c(cc1COC)-c1cc(=O)c(C(=O)O)cn1N1[C@@H]2CCC12CCC2 [Compound 110, (R)-11′-(methoxymethyl)-12′-(3-methoxypropoxy)-8′-oxo-1′,2′,8′,13b′-tetrahydrospiro[cyclobutane-1,3′-pyrido[2,1-a]pyrrolo[1,2-c]phthalazine]-7′-carboxylic acid] | 3.9 nM |  | > 10000 nM
COc1cc2c(cc1Oc1ncccn1)[C@H]1CCC(C)(C)N1n1cc(C(=O)O)c(=O)cc1-2 [Example 41, (R)-11-methoxy-3,3-dimethyl-8-oxo-12-(pyrimidin-2-yloxy)-2,3,8,13b-tetrahydro-1H-pyrido[2,1-a]pyrrolo[1,2-c]phthalazine-7-carboxylic acid] | 120 nM | > 10000 nM | 
COCCCOc1cc2c(cc1Cl)-c1cc(=O)c(C(=O)O)cn1N1[C@H](C)CC[C@@H]21 (single isomer, unassigned) [Example 9] | 45 nM | > 10000 nM | 
COCCCOc1cc2c(cc1Cl)-c1cc(=O)c(C(=O)O)cn1N1[C@H](C)CC[C@H]21 (single isomer, unassigned) [Example 7] | 32 nM | > 10000 nM | 
COCCCOc1cc2c(cc1OC(F)F)-c1cc(=O)c(C(=O)O)cn1N1[C@H]2CCC1(C)C (single isomer, unassigned) [Example 20] | 43 nM | > 10000 nM | 
COc1cc2c(cc1OCCCOc1ccccc1)[C@H]1CCC(C)(C)N1n1cc(C(=O)O)c(=O)cc1-2 [Example 61] | 0.94 nM | 6000 nM | 
CC1(C)CC[C@@H]2c3cc(OCC45CC(C#N)(C4)C5)c(OC(F)F)cc3-c3cc(=O)c(C(=O)O)cn3N21 [Example 104, (R)-12-((3-cyanobicyclo[1.1.1]pentan-1-yl)methoxy)-11-(difluoromethoxy)-3,3-dimethyl-8-oxo-2,3,8,13b-tetrahydro-1H-pyrido[2,1-a]pyrrolo[1,2-c]phthalazine-7-carboxylic acid] | 2.7 nM | > 10000 nM | 
COCCCOc1cc2c(cc1C1CC1)-c1cc(=O)c(C(=O)O)cn1N1[C@@H]2CCC1(C)C [Example 28, (R)-11-cyclopropyl-12-(3-methoxypropoxy)-3,3-dimethyl-8-oxo-2,3,8,13b-tetrahydro-1H-pyrido[2,1-a]pyrrolo[1,2-c]phthalazine-7-carboxylic acid] | 0.78 nM | 8700 nM | 
COc1cc2c(cc1OCCCOC(F)(F)F)[C@H]1CCC(C)(C)N1n1cc(C(=O)O)c(=O)cc1-2 [Example 58, (R)-11-methoxy-3,3-dimethyl-8-oxo-12-(3-(trifluoromethoxy)propoxy)-2,3,8,13b-tetrahydro-1H-pyrido[2,1-a]pyrrolo[1,2-c]phthalazine-7-carboxylic acid] | 4.8 nM | 9300 nM | 
COCc1cc2c(cc1N1CC[C@@H](COC)C1)[C@H]1CCC(C)(C)N1n1cc(C(=O)O)c(=O)cc1-2 [Compound 117, (R)-11-(methoxymethyl)-12-((R)-3-(methoxymethyl)pyrrolidin-1-yl)-3,3-dimethyl-8-oxo-2,3,8,13b-tetrahydro-1H-pyrido[2,1-a]pyrrolo[1,2-c]phthalazine-7-carboxylic acid] | 5.3 nM | 9700 nM | 
COCCCOc1cc2c(cc1Cl)-c1cc(=O)c(C(=O)O)cn1N1[C@@H]2COCC1(C)C (single isomer, unassigned) [Example 51] | 2.9 nM | > 10000 nM | 
COCCCOc1cc2c(cc1Cl)-c1cc(=O)c(C(=O)O)cn1N1[C@H]2CCCC1(C)C (single isomer, unassigned) [Example 13] | 34 nM | > 10000 nM | 
COCCOCc1cc2c(cc1OC)-c1cc(=O)c(C(=O)O)cn1N1[C@@H]2CCC1(C)C [Example 78, (R)-11-methoxy-12-((2-methoxyethoxy)methyl)-3,3-dimethyl-8-oxo-2,3,8,13b-tetrahydro-1H-pyrido[2,1-a]pyrrolo[1,2-c]phthalazine-7-carboxylic acid] | 70 nM | > 10000 nM | 
CC1(C)CC[C@@H]2c3cc(C#CC(C)(C)S(C)(=O)=O)c(OC(F)F)cc3-c3cc(=O)c(C(=O)O)cn3N21 [Compound 112, (R)-11-(difluoromethoxy)-3,3-dimethyl-12-(3-methyl-3-(methylsulfonyl)but-1-yn-1-yl)-8-oxo-2,3,8,13b-tetrahydro-1H-pyrido[2,1-a]pyrrolo[1,2-c]phthalazine-7-carboxylic acid] | 2.7 nM | > 10000 nM | 
CC1(C)CC[C@@H]2c3cc(OCC45CC(C#N)(C4)C5)c(C4CC4)cc3-c3cc(=O)c(C(=O)O)cn3N21 [Example 99, (R)-12-((3-cyanobicyclo[1.1.1]pentan-1-yl)methoxy)-11-cyclopropyl-3,3-dimethyl-8-oxo-2,3,8,13b-tetrahydro-1H-pyrido[2,1-a]pyrrolo[1,2-c]phthalazine-7-carboxylic acid] | 0.66 nM | 3600 nM | 
COCCCOc1cc2c(cc1OC)-c1cc(=O)c(C(=O)O)cn1N1[C@H]2CCC1(C)C [Example 15, (S)-11-methoxy-12-(3-methoxypropoxy)-3,3-dimethyl-8-oxo-2,3,8,13b-tetrahydro-1H-pyrido[2,1-a]pyrrolo[1,2-c]phthalazine-7-carboxylic acid] | 350 nM | > 10000 nM | 
COCCCOc1cc2c(cc1Cl)-c1cc(=O)c(C(=O)O)cn1N1CCCC21 (stereo not shown) [Example 1, 11-chloro-12-(3-methoxypropoxy)-8-oxo-2,3,8,13b-tetrahydro-1H-pyrido[2,1-a]pyrrolo[1,2-c]phthalazine-7-carboxylic acid] | 90 nM | 8000 nM | 
COCCCOc1cc2c(cc1Cl)-c1cc(=O)c(C(=O)O)cn1N1CCC(C)(C)[C@H]21 (single isomer, unassigned) [Example 47] | 16 nM | 1700 nM | 
COc1cc2c(cc1C#Cc1cnc3cccnn13)[C@H]1CCC(C)(C)N1n1cc(C(=O)O)c(=O)cc1-2 [Example 68, (R)-12-(imidazo[1,2-b]pyridazin-3-ylethynyl)-11-methoxy-3,3-dimethyl-8-oxo-2,3,8,13b-tetrahydro-1H-pyrido[2,1-a]pyrrolo[1,2-c]phthalazine-7-carboxylic acid] | 2.9 nM | > 10000 nM | 
COCCCOc1cc2c(cc1Cl)-c1cc(=O)c(C(=O)O)cn1N1[C@@H](C)CC[C@@H]21 (single isomer, unassigned) [Example 8] | 200 nM | > 10000 nM | 
COCCCOc1cc2c(cc1Cl)-c1cc(=O)c(C(=O)O)cn1N1[C@@H]2CCC12CC2 (single isomer, unassigned) [Example 56] | 1.5 nM |  | > 10000 nM
CCc1cc2c(cc1OCCCOC)[C@H]1CCC(C)(C)N1n1cc(C(=O)O)c(=O)cc1-2 [Example 63, (R)-11-Ethyl-12-(3-methoxypropoxy)-3,3-dimethyl-8-oxo-2,3,8,13b-tetrahydro-1H-pyrido[2,1-a]pyrrolo[1,2-c]phthalazine-7-carboxylic acid] | 0.34 nM | > 10000 nM | 
CC1(C)CC[C@@H]2c3cc(OCC45CC(C#N)(C4)C5)c(OC(F)(F)F)cc3-c3cc(=O)c(C(=O)O)cn3N21 [Example 92, (R)-12-((3-cyanobicyclo[1.1.1]pentan-1-yl)methoxy)-3,3-dimethyl-8-oxo-11-(trifluoromethoxy)-2,3,8,13b-tetrahydro-1H-pyrido[2,1-a]pyrrolo[1,2-c]phthalazine-7-carboxylic acid] | 3 nM | 8100 nM | 
COCCCOc1cc2c(cc1COC)-c1cc(=O)c(C(=O)O)cn1N1[C@@H]2COCC1(C)C [Example 102, (S)-12-(methoxymethyl)-13-(3-methoxypropoxy)-4,4-dimethyl-9-oxo-3,4,9,14b-tetrahydro-1H-[1,4]oxazino[3,4-a]pyrido[1,2-c]phthalazine-8-carboxylic acid] | 11.5 nM | > 10000 nM | 
CC1(C)CC[C@@H]2c3cc(OCC4COC4)c(C4CC4)cc3-c3cc(=O)c(C(=O)O)cn3N21 [Example 66, (R)-11-cyclopropyl-3,3-dimethyl-12-(oxetan-3-ylmethoxy)-8-oxo-2,3,8,13b-tetrahydro-1H-pyrido[2,1-a]pyrrolo[1,2-c]phthalazine-7-carboxylic acid] | 0.97 nM | > 10000 nM | 
COCCCOc1cc2c(cc1OCCCOC)[C@H]1CCC(C)(C)N1n1cc(C(=O)O)c(=O)cc1-2 [Example 23, (R)-11,12-bis(3-methoxypropoxy)-3,3-dimethyl-8-oxo-2,3,8,13b-tetrahydro-1H-pyrido[2,1-a]pyrrolo[1,2-c]phthalazine-7-carboxylic acid] | 53 nM | > 10000 nM | 
COCc1cc2c(cc1C#CC(C)(C)O)[C@H]1CCC(C)(C)N1n1cc(C(=O)O)c(=O)cc1-2 [Example 70, (R)-12-(3-hydroxy-3-methylbut-1-yn-1-yl)-11-(methoxymethyl)-3,3-dimethyl-8-oxo-2,3,8,13b-tetrahydro-1H-pyrido[2,1-a]pyrrolo[1,2-c]phthalazine-7-carboxylic acid] | 21.1 nM | > 10000 nM | 
CC1(C)CC[C@@H]2c3cc(-c4cnn(C(F)F)c4)c(Cl)cc3-c3cc(=O)c(C(=O)O)cn3N21 [Example 76, (R)-11-chloro-12-(1-(difluoromethyl)-1H-pyrazol-4-yl)-3,3-dimethyl-8-oxo-2,3,8,13b-tetrahydro-1H-pyrido[2,1-a]pyrrolo[1,2-c]phthalazine-7-carboxylic acid] | 6.3 nM | 4400 nM | 

— patent US10442804B2, “Compounds for the treatment of hepatitis B virus infection” (Gilead Sciences, Inc., priority 2017, dated 2019)
